Data published in patent publication US11267843B2, “Stereodefining L-monomers” (Roche Innovation Center Copenhagen A/S, priority 2016, dated 2022).

Assays:
[1] = Stability determination of amidite in solvent after 24 hours (HPLC-MS, UV 254 nm); assay type: physicochemical; conditions: for Stability at 24 hours: room temperature, grades 1-3, key not given
Experimental: (§1) To a 1.5 mL vial was added 0.013 mmol of amidite after which the solid material was dissolved in 0.13 mL of solvent. Hereafter, the vial was capped, vortexed, and finally left at room temperature for 24 hours. Then, the dissolved material was visually examined regarding the solubility (FIG. 1). If the solution appeared cloudy or otherwise non-homogenous the solubility was set to “no”.
Stability Determination Method: To complete the analysis the stability of the amidite was investigated using an Agilent 1100 series HPLC-MS with from the following specifications:
Column: Waters XTerra, MS C-18, 5 μm, 2.1×100 mm
Eluent: A: 0.1% sat. NH4OH (aq) in H2O B: 20% A in CH3CN
The mass and UV peak of the mother compound was identified at 0 hours and at 24 hours. Hereafter, the relative stability compared to other by-products was reported by integrating the UV chromatogram (254 nm) and normalizing the area to the chromatogram recorded at 0 hours (FIG. 2).

[2] = Solubility of amidite in solvent, visual examination; assay type: physicochemical
Experimental: To investigate the stability and solubility of L-LNA G-DMF and L-LNA G-i-Bu the following experimental procedure was followed:
as §1

Row | Structure (SMILES) | Stability at 24 hours ([1]; solvent DMF) | Stability at 24 hours ([1]; solvent DMSO) | Stability at 24 hours ([1]; solvent Dioxane) | Stability at 24 hours ([1]; solvent MeCN:Acetone (1:1)) | Stability at 24 hours ([1]; solvent MeCN:DCE (1:1)) | Stability at 24 hours ([1]; solvent MeCN:DCM (1:1)) | Stability at 24 hours ([1]; solvent MeCN:Toluene (1:1)) | Stability at 24 hours ([1]; solvent MeCN) | Stability at 24 hours ([1]; solvent THE) | Stability at 24 hours ([1]; solvent Toluene) | Stability at 24 hours ([1]; solvent DCE) | Stability at 24 hours ([1]; solvent DCM) | Stability at 24 hours ([1]; solvent NMP) | stability in most solvents (side by side comparison) ([1]; most solvents) | solubility in most solvents (side by side comparison) ([2]; most solvents) | improvement in stability ([1]; all solvents investigated) | solubility in all solvents investigated ([2]; all solvents investigated (12 different))
1 | COc1ccc(C(OCC2OC(n3cnc4c(=O)[nH]c(N=CN(C)C)nc43)CC2OP2OC(c3ccccc3)C3CCCN32)(c2ccccc2)c2ccc(OC)cc2)cc1 [D-DNA G-DMF] | 3 | 3 | 2 | 3 | 3 | 3 | 3 | 3 | 3 | 3 |  |  |  |  |  |  | 
2 | COc1ccc(C(OCC2OC(n3cc(C)c(=O)[nH]c3=O)CC2OP2OC(c3ccccc3)C3CCCN32)(c2ccccc2)c2ccc(OC)cc2)cc1 [D-DNA T-DMF] | 3 | 3 | 1 | 2 | 3 | 3 | 3 | 3 | 1 | 3 | 1 | 1 | 3 |  |  |  | 
3 | COc1ccc(C(OCC23COC(C(n4cnc5c(=O)[nH]c(N=CN(C)C)nc54)O2)C3OP2OC(c3ccccc3)C3CCCN32)(c2ccccc2)c2ccc(OC)cc2)cc1 [D-LNA G-DMF] | 1 | 1 | 1 | 2 | 1 | 1 | 3 | 1 | 2 | 3 | 1 | 1 | 3 | stable | soluble |  | 
4 | COc1ccc(C(OCC23COC(C(n4cc(C)c(=O)[nH]c4=O)O2)C3OP2OC(c3ccccc3)C3CCCN32)(c2ccccc2)c2ccc(OC)cc2)cc1 [D-LNA T-DMF] | 2 | 3 | 2 | 2 | 1 | 1 | 3 | 1 | 1 | 3 | 1 | 1 | 3 |  |  |  | 
5 | COc1ccc(C(OCC2OC(n3cnc4c(=O)[nH]c(N=CN(C)C)nc43)CC2OP2OC(c3ccccc3)C3CCCN32)(c2ccccc2)c2ccc(OC)cc2)cc1 [L-DNA G-DMF] | 3 | 3 | 2 | 3 | 3 | 3 | 3 | 2 | 3 | 3 |  |  |  |  |  |  | 
6 | COc1ccc(C(OCC2OC(n3cc(C)c(=O)[nH]c3=O)CC2OP2OC(c3ccccc3)C3CCCN32)(c2ccccc2)c2ccc(OC)cc2)cc1 [L-DNA T-DMF] | 3 | 3 | 1 | 3 | 3 | 3 | 3 | 3 | 2 | 3 | 1 | 1 | 3 |  |  |  | 
7 | COc1ccc(C(OC[C@@]23CO[C@@H]([C@H](n4cnc5c(=O)[nH]c(NC(=O)C(C)C)nc54)O2)[C@@H]3O[P@]2O[C@H](c3ccccc3)[C@@H]3CCCN32)(c2ccccc2)c2ccc(OC)cc2)cc1 [L-LNA G-iBu, N-(9-((1R,3R,4R,7S)-1-((bis(4-methoxyphenyl)(phenyl)methoxy)methyl)-7-(((1R,3R,3aS)-3-phenyltetrahydro-1H,3H-pyrrolo[1,2-c][1,3,2]oxazaphosphol-1-yl)oxy)-2,5-dioxabicyclo[2.2.1]heptan-3-yl)-6-oxo-6,9-dihydro-1H-purin-2-yl)isobutyramide] | 3 | 3 | 1 | 2 | 2 | 2 | 3 | 2 | 2 | 3 | 2 | 2 |  |  |  | significant improvement | soluble
8 | COc1ccc(C(OCC23COC(C(n4cc(C)c(=O)[nH]c4=O)O2)C3OP2OC(c3ccccc3)C3CCCN32)(c2ccccc2)c2ccc(OC)cc2)cc1 [L-LNA T-DMF] | 1 | 2 | 1 | 2 | 1 | 1 | 3 | 1 | 1 | 3 | 1 | 1 | 2 |  |  |  | 
